Laboratory results taken from US20040082635A1, “Fused cyclic compounds and medicinal use thereof” (priority 2001, published 2004).
pIC50: −log10 of the molar value. Where a name gives a salt, the structure may show the parent alone.

These molecules were tested against T1, HCV polymerase (Hepatitis C virus genotype 1b, UniProt P26663) (assay: biochemical). Details: HCV polymerase inhibitory activity IC50.
T1 construct: a region encoding NS5B (591 amino acids; J Virol 1991 Mar, 65(3), 1105-13) was amplified by PCR; 6 His (N); made in house; host or cells: Escherichia coli
T1 sequence (P26663 2420-3010): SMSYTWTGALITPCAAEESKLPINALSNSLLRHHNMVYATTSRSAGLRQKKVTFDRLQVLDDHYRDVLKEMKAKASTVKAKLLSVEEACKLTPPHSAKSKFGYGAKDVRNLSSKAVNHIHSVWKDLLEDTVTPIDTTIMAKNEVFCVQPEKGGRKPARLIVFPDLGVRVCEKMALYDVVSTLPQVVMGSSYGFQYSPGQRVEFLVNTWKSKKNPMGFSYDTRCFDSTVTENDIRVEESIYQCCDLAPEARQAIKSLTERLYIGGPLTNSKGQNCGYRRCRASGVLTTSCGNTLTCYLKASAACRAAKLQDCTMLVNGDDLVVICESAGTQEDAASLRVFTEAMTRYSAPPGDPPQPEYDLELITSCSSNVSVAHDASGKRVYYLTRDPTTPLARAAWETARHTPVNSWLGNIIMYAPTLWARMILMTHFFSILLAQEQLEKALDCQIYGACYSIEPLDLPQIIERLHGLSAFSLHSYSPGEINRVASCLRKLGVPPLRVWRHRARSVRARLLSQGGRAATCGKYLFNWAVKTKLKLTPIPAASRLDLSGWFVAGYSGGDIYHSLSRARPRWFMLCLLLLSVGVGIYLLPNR
Work on `O=C1CCN(C(=O)c2ccc(-c3ccc(Cl)cc3)c(COc3ccc(-c4nc5cc(C(=O)O)ccc5n4C4CCCCC4)cc3)c2)CC1` [Example 328, 2-{4-[2-(4-chlorophenyl)-5-(4-oxopiperidinocarbonyl)-benzyloxy]phenyl}-1-cyclohexylbenzimidazole-5-carboxylic acid hydrochloride] yielded a pIC50 of 7.82.

Same assay, conditions: read-out: HCV polymerase inhibitory activity IC50
In the case of `CC(C)NC(=O)c1cc(COc2ccc(-c3nc4cc(C(=O)O)ccc4n3C3CCCCC3)c(F)c2)c(-c2ccc(F)cc2)s1` [Example 432, 2-{4-[{2-(4-fluorophenyl)-5-(isopropylcarbamoyl)thiophen-3-yl}methoxy]-2-fluorophenyl}-1-cyclohexylbenzimidazole-5-carboxylic acid hydrochloride], the pIC50 was 7.66.
`CCCN(C(C)=O)c1ccc(-c2ccc(Cl)cc2)c(COc2ccc(-c3nc4cc(C(=O)O)ccc4n3C3CCCCC3)c(F)c2)c1` [Example 460, 2-[4-{2-(4-chlorophenyl)-5-(N-acetyl-N-propylamino)benzyloxy}-2-fluorophenyl]-1-cyclohexylbenzimidazole-5-carboxylic acid hydrochloride] was tested, and the pIC50 was 7.77.
In the case of `O=C(O)c1ccc2c(c1)nc(-c1ccc(Oc3cccc(OCc4ccccn4)c3)cc1)n2C1CCCCC1` [Example 187, 1-cyclohexyl-2-{4-[3-(2-pyridylmethoxy)phenoxy]phenyl}-benzimidazole-5-carboxylic acid], the pIC50 was 7.25.
Molecule `O=C(O)c1ccc2c(c1)nc(-c1ccc(OCC(c3ccccc3)c3ccccc3)cc1)n2C1CCCCC1` [Example 125, 1-cyclohexyl-2-[4-(2,2-diphenylethoxy)phenyl]benzimidazole-5-carboxylic acid] has a pIC50 of 6.92.
With `CN(C)C(=O)c1ccc(-c2ccc(C(=O)N(C)C)cc2COc2ccc(-c3nc4cc(C(=O)O)ccc4n3C3CCCCC3)cc2)cc1` [Example 273, 2-{4-[3-dimethylcarbamoyl-6-(4-dimethylcarbamoylphenyl)-benzyloxy]phenyl}-1-cyclohexylbenzimidazole-5-carboxylic acid] the pIC50 was 7.39.
With `O=C(O)c1ccc2c(c1)nc(-c1ccc(OCc3cc(C4=NCCN4)ccc3-c3ccc(Cl)cc3)cc1F)n2C1CCCCC1` [Example 422, 2-{4-[2-(4-chlorophenyl)-5-(2-imidazolin-2-yl)benzyloxy]-2-fluorophenyl}-1-cyclohexylbenzimidazole-5-carboxylic acid dihydrochloride] the pIC50 was 7.77.
`O=C(O)c1ccc2c(c1)nc(-c1ccc(OCc3ccncc3)cc1)n2C1CCCC1` [Example 49, 1-cyclopentyl-2-[4-(4-pyridylmethoxy)phenyl]benzimidazole-5-carboxylic acid hydrochloride] showed a pIC50 of 6.03.
`CS(=O)(=O)N1CCC(COc2cccc(Oc3ccc(-c4nc5cc(C(=O)O)ccc5n4C4CCCCC4)cc3)c2)CC1` [Example 198, 1-cyclohexyl-2-{4-[3-{(1-methanesulfonyl-4-piperidyl)methoxy}-phenoxy]phenyl}benzimidazole-5-carboxylic acid] was tested, and the pIC50 was 7.36.
`O=C(O)c1ccc2c(c1)nc(-c1ccc(Oc3cccc(OCc4cccnc4)c3)cc1)n2C1CCCCC1` [Example 178, 1-cyclohexyl-2-{4-[3-(3-pyridylmethoxy)phenoxy]phenyl}-benzimidazole-5-carboxylic acid] was tested, and the pIC50 was 7.28.
`CC(=O)N(c1ccc(-c2ccc(Cl)cc2)c(COc2ccc(-c3nc4cc(C(=O)O)ccc4n3C3CCCCC3)c(F)c2)c1)C(C)C` [Example 469, 2-[4-{2-(4-chlorophenyl)-5-(N-acetyl-N-isopropylamino)-benzyloxy}-2-fluorophenyl]-1-cyclohexylbenzimidazole-5-carboxylic acid hydrochloride] gave a pIC50 of 7.62.
`O=C(O)c1ccc2c(c1)nc(-c1ccc(Oc3cccc(OCC4CCNCC4)c3)cc1)n2C1CCCCC1` [Example 161, 1-cyclohexyl-2-{4-[3-(4-piperidylmethoxy)phenoxy]phenyl}-benzimidazole-5-carboxylic acid hydrochloride] showed a pIC50 of 7.21.
For `O=C(O)c1ccc2c(c1)nc(-c1ccc(OCc3cc(C(=O)NCc4cccnc4)ccc3-c3ccc(Cl)cc3)cc1)n2C1CCCCC1` [Example 322, 2-{4-[2-(4-chlorophenyl)-5-{N-(3-pyridylmethyl)carbamoyl}-benzyloxy]phenyl}-1-cyclohexylbenzimidazole-5-carboxylic acid dihydrochloride], the pIC50 was 7.80.
`O=C(O)c1ccc2c(c1)nc(-c1ccc(OC3CCCN(Cc4ccc(Cl)cc4)C3)cc1)n2C1CCCCC1` (stereo not shown) [Example 219, 2-{4-[1-(4-chlorobenzyl)-3-piperidyloxy]phenyl}-1-cyclohexylbenzimidazole-5-carboxylic acid] was tested, and the pIC50 was 6.89.
`O=C(O)c1ccc2c(c1)nc(-c1ccc(OCc3ccccc3Cl)cc1)n2C1CCCC1` [Example 54, 2-[4-(2-chlorobenzyloxy)phenyl]-1-cyclopentylbenzimidazole-5-carboxylic acid] gave a pIC50 of 6.25.
Molecule `CC(C)NC(=O)c1ccc(COc2ccc(-c3nc4cc(C(=O)O)ccc4n3C3CCCCC3)cc2)c(-c2ccc(Cl)cc2)c1` [Example 350, 2-{4-[2-(4-chlorophenyl)-4-(isopropylcarbamoyl)benzyloxy]phenyl}-1-cyclohexylbenzimidazole-5-carboxylic acid hydrochloride] has a pIC50 of 7.70.
Molecule `CN(C)C(=O)c1ccc(C(Oc2ccc(-c3nc4cc(C(=O)O)ccc4n3C3CCCCC3)c(F)c2)c2ccc(C(=O)N(C)C)cc2)cc1` [Example 301] has a pIC50 of 7.77.
Work on `Cc1ccc(C(Oc2ccc(-c3nc4cc(C(=O)O)ccc4n3C3CCCCC3)cc2)c2ccc(C)cc2)cc1` [Example 133, 2-{4-[bis(4-methylphenyl)methoxy]phenyl}-1-cyclohexylbenzimidazole-5-carboxylic acid] yielded a pIC50 of 6.92.
Molecule `O=C(O)c1ccc2c(c1)nc(-c1ccc(Oc3cccc(OC4CCOCC4)c3)cc1)n2C1CCCCC1` [Example 209, 1-cyclohexyl-2-{4-[3-(4-tetrahydropyranyloxy)phenoxy]phenyl}-benzimidazole-5-carboxylic acid] has a pIC50 of 6.92.
`O=C(O)c1ccc2c(c1)nc(-c1ccc(OCc3cc(F)ccc3-c3ccc(Cl)cc3)cc1)n2C1CCCCC1` [Example 188, 2-{4-[2-(4-chlorophenyl)-5-fluorobenzyloxy]phenyl}-1-cyclohexylbenzimidazole-5-carboxylic acid] was tested, and the pIC50 was 7.42.
`O=C(O)c1ccc2c(c1)nc(-c1ccc(OC(c3ccccc3)c3ccccc3)cc1)n2C1CCCCC1` [Example 82, 1-cyclohexyl-2-[4-(diphenylmethoxy)phenyl]benzimidazole-5-carboxylic acid] was tested, and the pIC50 was 7.01.
Work on `O=C(O)c1ccc2c(c1)nc(-c1ccc(OCc3ccc(C(=O)N4CCC(O)CC4)cc3-c3ccc(Cl)cc3)cc1)n2C1CCCCC1` [Example 354, 2-{4-[2-(4-chlorophenyl)-4-(4-hydroxypiperidin-1-ylcarbonyl)benzyloxy]phenyl}-1-cyclohexylbenzimidazole-5-carboxylic acid hydrochloride] yielded a pIC50 of 7.89.
Work on `Cc1nc(-c2ccc(C(=O)O)cc2)c(COc2ccc(-c3nc4cc(C(=O)O)ccc4n3C3CCCCC3)cc2)s1` [Example 255, 1-cyclohexyl-2-{4-[{4-(4-carboxyphenyl)-2-methyl-5-thiazolyl}-methoxy]phenyl}benzimidazole-5-carboxylic acid hydrochloride] yielded a pIC50 of 7.42.
In the case of `Cc1cnc(-c2ccc(-c3ccc(Cl)cc3)c(COc3ccc(-c4nc5cc(C(=O)O)ccc5n4C4CCCCC4)cc3)c2)s1` [Example 366, 2-{4-[2-(4-chlorophenyl)-5-(5-methylthiazol-2-yl)benzyloxy]-phenyl}-1-cyclohexylbenzimidazole-5-carboxylic acid hydrochloride], the pIC50 was 7.62.
For `CC(C)NC(=O)c1ccc(-c2ccc(Cl)cc2)c(COc2ccc(-c3nc4cc(C(=O)O)ccc4n3C3CCSCC3)c(F)c2)c1` [Example 418, 2-{4-[2-(4-chlorophenyl)-5-(isopropylcarbamoyl)benzyloxy]-2-fluorophenyl}-1-(tetrahydrothiopyran-4-yl)benzimidazole-5-carboxylic acid hydrochloride], the pIC50 was 7.80.
In the case of `O=C(O)c1ccc2c(c1)nc(-c1ccc(Oc3ccc(OCc4ccccc4)cc3)cc1Cl)n2C1CCCCC1` [Example 149, 2-{4-(4-benzyloxyphenoxy)-2-chlorophenyl}-1-cyclohexylbenzimidazole-5-carboxylic acid], the pIC50 was 6.82.
Work on `CN(C)C(=O)COc1ccccc1Oc1ccc(-c2nc3cc(C(=O)O)ccc3n2C2CCCCC2)cc1` [Example 191, 1-cyclohexyl-2-{4-[2-(dimethylcarbamoylmethoxy)phenoxy]-phenyl}benzimidazole-5-carboxylic acid] yielded a pIC50 of 6.37.
For `CC(C)(CO)NC(=O)c1ccc(-c2ccc(Cl)cc2)c(COc2ccc(-c3nc4cc(C(=O)O)ccc4n3C3CCCCC3)cc2)c1` [Example 352, 2-{4-[2-(4-chlorophenyl)-5-{(1-hydroxy-2-methylpropan-2-yl)carbamoyl}benzyloxy]phenyl}-1-cyclohexylbenzimidazole-5-carboxylic acid hydrochloride], the pIC50 was 7.89.
`C[C@@H]1CCC[C@H](C)N1C(=O)c1ccc(-c2ccc(Cl)cc2)c(COc2ccc(-c3nc4cc(C(=O)O)ccc4n3C3CCCCC3)c(F)c2)c1` [Example 387, 2-{4-[2-(4-chlorophenyl)-5-(2,6-dimethylpiperidin-1-ylcarbonyl)-benzyloxy]-2-fluorophenyl}-1-cyclohexylbenzimidazole-5-carboxylic acid hydrochloride] gave a pIC50 of 7.60.
`COc1ccc(-c2ccc(Cl)cc2)c(COc2ccc(-c3nc4cc(C(=O)O)ccc4n3C3CCSCC3)c(F)c2)c1` [Example 276, 2-{4-[2-(4-chlorophenyl)-5-methoxybenzyloxy]-2-fluorophenyl}-1-(4-tetrahydrothiopyranyl)benzimidazole-5-carboxylic acid] showed a pIC50 of 7.64.
`NC(=O)Nc1ccc(-c2ccc(Cl)cc2)c(COc2ccc(-c3nc4cc(C(=O)O)ccc4n3C3CCCCC3)c(F)c2)c1` [Example 393, 2-{4-[2-(4-chlorophenyl)-5-ureidobenzyloxy]-2-fluorophenyl}-1-cyclohexylbenzimidazole-5-carboxylic acid hydrochloride] gave a pIC50 of 7.96.
